Earlier results on two compounds are cited in patent US20140161876A1, “LIPOSOME-CONTAINING PREPARATION UTILIZING DISSOLUTION AID, AND METHOD FOR PRODUCING SAME” (KONICA MINOLTA, INC., priority 2011, published 2014).

The conditions of the series: drug encapsulated, Tables 3 and 4.

In brackets after ≈: the same amount, converted by molar mass.

Take `COc1cc([C@@H]2c3cc4c(cc3[C@@H](O[C@@H]3O[C@@H]5CO[C@@H](C)O[C@H]5[C@H](O)[C@H]3O)[C@H]3COC(=O)[C@H]23)OCO4)cc(OC)c1O` [etoposide]: the Solubility in water is reported as 0.5 mg/mL (≈ 0.85 mM). As for `Nc1nc(=O)c2c([nH]1)NC[C@H](CNc1ccc(C(=O)N[C@@H](CCC(=O)O)C(=O)O)cc1)N2C=O` [levofolinate], the Solubility in water is recorded as 20 mg/mL (≈ 42.2 mM).
